The text below walks through data of US12258554B2 (priority 2014, dated 2025).

Several values for one entry are separate records, joined by “and”; a condition that tells them apart may be missing. Equal values may be shown once. Read-outs that look alike come from different tables or passages of the source. Where a SMILES comes first, the peptide text is derived from it. Bridges are numbered along the chain shown (N, C = ends). [ ]: non-standard residue; d: D form. The star is where a group is joined. ξ: configuration not given here. Pentadecanoyl(3ξ-OH,15-Gua) = N=C(N)NCCCCCCCCCCCCC(O)CC(=O)*; d(aThr) = C[C@@H](O)[C@@H](N)C(=O)O; Thr(3ξ) = CC(O)[C@H](N)C(=O)O; ξY = NC(Cc1ccc(O)cc1)C(=O)O

For experiment [1], the system named is Phytophthora infestans (PHYTIN). In kind it is in vivo. Conditions: for % efficacy (% fungal attack): late blight on tomato, protective application, metabolite conc. 7.2 ppm, visually assessed 5-7 days after inoculation; for % efficacy PHYTIN: in planta, 360 ppm, assessed 5-7 days after inoculation.
Experiment [2] relates to Fusarium graminearum (GIBBZE). In kind it is in vivo. Conditions: for % efficacy (% fungal attack): head blight on wheat, protective application, metabolite conc. 360 ppm, visually assessed 5-7 days after inoculation.
The subject of experiment [3] is Alternaria solani (ALTESO). As to the kind of experiment: Fungal growth assay in 96 well plates. In kind it is cell-based. Particulars: OD 600 nm, YBG, about 18° C. How it is done:
(§1) Fungal growth assays were performed in 96 well plates with spore suspension of the pathogen Botrytis cinerea (BOTRCI, in YBA [10 g Bacto peptone (Becton Dickinson 211677), 10 g yeast extract (Becton Dickinson 212750), 20 g sodium acetate, ad 1000 mL aqua bidest] or Alternaria solani (ALTESO, in YBG [10 g Bacto peptone (Becton Dickinson 211677), 10 g yeast extract (Becton Dickinson 212750), 20 g glycerine 99%, ad 1000 mL aqua bidest]). Fusaricidins and compounds 1A and 1B were dissolved and diluted in DMSO. Different concentrations ranging from 60 μM down to 0.3 μM were pipetted into the microtiter plate. An aqueous suspension of 10^4 spores/ml was added. The plates were incubated at about 18° C. Fungal growth was determined by measuring the optical density at 600 nm in a microplate reader 3 and 7 days after the inoculation of the spores and compared to the untreated control (DMSO). IC50 (concentration [μM] of the respective metabolite required for 50% inhibition of fungal growth) has been determined thereafter.

For experiment [4], the system named is Botrytis cinerea (BOTRCI). As to the kind of experiment: Fungal growth assay in 96 well plates. In kind it is cell-based. Particulars: evaluation 7 d after inoculation, OD 600 nm, YBA, about 18° C.; read-out: Fungal growth inhibition (IC50) BOTRCI (7d). How it is done: as §1
Experiment [5] relates to clinically relevant fungi and gram-positive bacteria such a Staphylococcus aureus. Particulars: ChemMedChem 7, 871-882, 2012; cited from earlier work.
For experiment [6], the system named is Septoria tritici (SEPTTR). Nature of the experiment: Glasshouse test, speckled leaf blotch on wheat, protective application. The format is in vivo. Particulars: metabolite conc. 360 ppm. As to the method:
Commercially available young wheat seedlings were used for the described greenhouse trial. 2 replications (pots with 1 plant each) were used per treatment. Plants were grown in commercially available substrate (Universal, Floragard) at approx. 22° C. in the greenhouse. The humidity was controlled using a special device (˜90% humidity). The plants were sprayed to runoff with crude culture broth of 2-6 days old cultures of Paenibacillus spp. (depending on the setup) using a spray cabinet. Culture conditions are described in Example 3. One day after application the treated plants were inoculated with a suspension of spores of Septoria tritici (SEPTTR). After inoculation, the trial plants were immediately transferred to a humid chamber. The extent of fungal attack on the leaves was visually assessed 21-28 days after inoculation.

In experiment [7] the test system is Botrytis cinerea (BOTRCI). Particulars: in vivo.
For experiment [8], the system named is Phakopsora pachyrhizi (PHAKPA). Conditions: in vivo.
In experiment [9] the test system is important fungal diseases on crop plants. In kind it is in vivo. Particulars: metabolites; for controlling important fungal diseases on crop plants: dose levels as low as 7.2 ppm; for antifungal efficacy compared with Fusaricidin A, B and D: glasshouse trials.
In experiment [10] the test system is Alternaria solani (ALTESO). Conditions: in vivo.
The mark [11] stands for this setting: evaluation 3 d after inoculation, read-out: Fungal growth inhibition (IC50) ALTESO (3 d).
Setting [12] is: evaluation 7 d after inoculation, read-out: Fungal growth inhibition (IC50) ALTESO (7 d).

Regarding `CC(C)[C@@H]1NC(=O)[C@@H](C(C)C)NC(=O)[C@@H](NC(=O)CC(O)CCCCCCCCCCCCN=C(N)N)[C@@H](C)OC(=O)[C@@H](C)NC(=O)[C@@H](CC(N)=O)NC(=O)[C@@H]([C@@H](C)O)NC1=O` (stereo partly shown) [Compound 5A, fusaricidin A] ({Pentadecanoyl(3ξ-OH,15-Gua)}-T[dV]V[d(aThr)][dN][dA]; ester 1-C), the figures for the “% efficacy (% fungal attack)” value in experiment [1] and in [2] were 15% and 31%, respectively. The IC50 (as a rule, the concentration needed to halve the response being measured) is 1300 nM in experiment [3] (setting [11]), 700 nM in [3] (setting [12]) and 500 nM in experiment [4]. In addition, in experiment [5], the MIC value range is 0.78 to 3.12 µg/mL.

For the molecule `CC(C)[C@@H]1NC(=O)[C@@H](C(C)C)NC(=O)[C@@H](NC(=O)CC(O)CCCCCCCCCCCCN=C(N)N)C(C)OC(=O)[C@@H](C)NC(=O)[C@@H](CCC(N)=O)NC(=O)[C@@H]([C@H](C)O)NC1=O` (stereo in doubt) [Compound 5B, fusaricidin B], the “% efficacy (% fungal attack)” value in experiment [1] is 4%; in experiment [2], 0%. The 50% inhibitory concentration (IC50) amounted to 1100 nM in experiment [3] (setting [11]), 600 nM in experiment [3] (setting [12]) and 600 nM in experiment [4].

Take `CC1OC(=O)[C@@H](C)NC(=O)[C@@H](CCC(N)=O)NC(=O)[C@@H]([C@H](C)O)NC(=O)C(Cc2ccc(O)cc2)NC(=O)[C@@H](C(C)C)NC(=O)[C@H]1NC(=O)CC(O)CCCCCCCCCCCCN=C(N)N` (stereo partly shown) [Compound 2B, fusaricidin D] ({Pentadecanoyl(3ξ-OH,15-Gua)}-[Thr(3ξ)][dV][ξY][dT][dQ][dA]; ester 1-C): the “% efficacy (% fungal attack)” value in [1] was determined as 0%; in [6] it was 50%. Besides, the IC50 in experiment [3] (setting [11]) was found to be 1100 nM; in experiment [3] (setting [12]), 600 nM; in [4], 500 nM.

As to `CCC(C)C1NC(=O)C(NC(=O)CC(O)CCCCCCCCCCCCNC(=N)N)C(C)OC(=O)C(C)NC(=O)C(CCC(N)=O)NC(=O)C(C(C)O)NC(=O)C(Cc2ccc(O)cc2)NC1=O` (stereo not shown) [Compound 1B] ({Pentadecanoyl(3ξ-OH,15-Gua)}-TIYTQA; ester 1-C; configuration not given here), the “% efficacy PHYTIN” value in experiment [1] stood at 100%. The “% efficacy (% fungal attack)” value in experiment [1] turned out to be 44%; in experiment [6], 80%. The “% efficacy BOTRCI” value in [7] is 97% and 100%. For the same molecule, the “% efficacy PHAKPA” value in experiment [8] is given as 97%. Besides, the IC50 in [3] (setting [11]) was determined as 600 nM; in experiment [3] (setting [12]), 400 nM; in experiment [4], 400 nM. Besides, the “controlling important fungal diseases on crop plants” value in experiment [9] is recorded as “effective”. Moreover, the “antifungal efficacy compared with Fusaricidin A, B and D” value in experiment [9] is “higher antifungal efficacy than Fusaricidin A, B and D”.

For `CCC(C)C1NC(=O)C(NC(=O)CC(O)CCCCCCCCCCCCNC(=N)N)C(C)OC(=O)C(C)NC(=O)C(CC(N)=O)NC(=O)C(C(C)O)NC(=O)C(Cc2ccc(O)cc2)NC1=O` (stereo not shown) [Compound 1A] ({Pentadecanoyl(3ξ-OH,15-Gua)}-TIYTNA; ester 1-C; configuration not given here), in experiment [1], the “% efficacy PHYTIN” value amounted to 100%. The “% efficacy BOTRCI” value in experiment [7] is 99% and 97%. Moreover, in experiment [10], the “% efficacy ALTESO” value is listed as 74%. Also, in [8], the “% efficacy PHAKPA” value is on record as 95%. Further, in experiment [2], the “% efficacy (% fungal attack)” value was determined as 49%. Besides, the “% efficacy GIBBZE” value in [2] (in planta, 360 ppm, assessed 5-7 days after inoculation) is recorded as 49%. The IC50 in [3] (setting [11]) is 600 nM; in experiment [3] (setting [12]), 500 nM; in experiment [4], 300 nM. Further, the “controlling important fungal diseases on crop plants” value in experiment [9] is recorded as “effective”. In experiment [9], the “antifungal efficacy compared with Fusaricidin A, B and D” value is “higher antifungal efficacy than Fusaricidin A, B and D”.
